Test results: US6444692B1, “Fungicidal mixtures” (BASF Aktiengesellschaft, priority 1997, dated 2002)

Tested on: powdery mildew of wheat (Erysiphe graminis forma specialis tritici)
Assay: Activity against powdery mildew of wheat (protective spray on wheat seedlings, visual % infection of leaf area after 7 days)
Assay type: in vivo
Conditions: single active ingredient, wheat seedlings cv. Frühgold
Source text: The active ingredients, separately or together, are formulated as a 10% emulsion in a mixture of 70% by weight of cyclohexanone, 20% by weight of Nekanil® LN (Lutensol® AP6, wetting agent having emulsifying and dispersing action, based on ethoxylated alkylphenols) and 10% by weight of Emulphor® EL (Emulan® EL, emulsifier based on ethoxylated fatty alcohols) and diluted with water to give the desired concentration.
Leaves of wheat seedlings cv. “Frühgold” which had been grown in pots were sprayed to runoff point with an aqueous preparation of active ingredient which had been prepared from a stock solution comprising 10% of active ingredient, 63% of cyclohexanone and 27% of emulsifier and, 24 hours after the spray coating had dried on, dusted with spores of powdery mildew of wheat (Erysiphe graminis forma specialis tritici). The test plants were subsequently placed in a greenhouse at from […] and a relative atmospheric humidity of 60 to 90%. After 7 days, the extent of mildew development was determined visually as % infection of the total leaf area.
Evaluation is carried out by determining the infected leaf areas in percent. These percentages are converted into efficacies. The expected efficacies of the mixtures of the active ingredients are determined using Colby's formula [R. S. Colby, Weeds 15, 20-22 (1967)] and compared with the observed efficacies. […]
The efficacy (E) is calculated as follows using Abbot's formula: […]
α corresponds to the fungal infection of the treated plants in % and
β corresponds to the fungal infection of the untreated (control) plants in %
An efficacy of 0 means that the infection level of the treated plants corresponds to that of the untreated control plants; an efficacy of 100 means that the treated plants were not infected.

Compound | Efficacy in % of the untreated control (0.125 ppm in the spray liquor) [%] | Efficacy in % of the untreated control (0.5 ppm in the spray liquor) [%]
COC(=O)N(OC)c1ccccc1COc1ccn(-c2ccc(Cl)cc2)n1 [Compound I.32] | 0 | 10
CNC(=O)/C(=N\OC)c1ccccc1COc1cc(C)ccc1C [Compound III] | 20 | –
CO/N=C(\C(=O)OC)c1ccccc1COc1ccccc1C [Compound II] | 0 | –
